Consider 8 compounds from ChEMBL document CHEMBL3880428, “Sulfonamide derivative having PGD2 receptor antagonistic activity” (2012).

Bounds are passed on as bounds.

The test system of assay [1] is Rattus norvegicus. As to the kind of experiment: Antiallergic activity in Brown Norway rat model of ovalbumin-induced asthma assessed as inhibition of mucus secretion in airway lavage fluid at 10 mg/kg, po qd for 3 consecutive days administered 1 hr prior to fourth exposure of antigen by ELISA relative to control. It counts as functional. In general terms: An ELISA detects its analyte on a solid surface through an enzyme-linked reagent.

Assay [2] has as its system Rattus norvegicus. As to the kind of experiment: Antiallergic activity in Brown Norway rat model of ovalbumin-induced asthma assessed as inhibition of infiltration of inflammatory cells in bronchoalveoli at 10 mg/kg, po qd for 3 consecutive days administered 1 hr prior to fourth exposure of antigen by hemocytometry based light microscopy relative to control. It is filed as functional.

Assay [3] relates to Rattus norvegicus. As to the kind of experiment: Antiallergic activity in Brown Norway rat model of ovalbumin-induced asthma assessed as inhibition of airway hyperresponsiveness at 10 mg/kg, po qd for 3 consecutive days administered 1 hr prior to fourth exposure of antigen relative to control. It is filed as functional.
For assay [4], the system named is HEK293. The assay can be described thus: Selectivity ratio of IC50 for PGD2 receptor in human platelets to IC50 for human EP1 receptor expressed in HEK293 cells by cAMP accumulation assay. It counts as cell-based.
Assay [5] deals with HEK293. The assay can be described thus: Selectivity ratio of IC50 for PGD2 receptor in human platelets to IC50 for human TP receptor expressed in HEK293 cells by cAMP accumulation assay. It is filed as cell-based.
For assay [6], the system named is HEK293. The assay can be described thus: Selectivity ratio of IC50 for PGD2 receptor in human platelets to IC50 for human IP receptor expressed in HEK293 cells by cAMP accumulation assay. It is filed as cell-based. (cAMP levels reflect the balance of adenylyl cyclase and phosphodiesterase activity.)
For assay [7], the system named is HEK293. The assay can be described thus: Selectivity ratio of IC50 for PGD2 receptor in human platelets to IC50 for human FP receptor expressed in HEK293 cells by cAMP accumulation assay. It is filed as cell-based.
For assay [8], the system named is HEK293. As to the kind of experiment: Selectivity ratio of IC50 for PGD2 receptor in human platelets to IC50 for human EP3 receptor expressed in HEK293 cells by cAMP accumulation assay. It counts as cell-based.
The subject of assay [9] is HEK293. The assay can be described thus: Selectivity ratio of IC50 for PGD2 receptor in human platelets to IC50 for human EP2 receptor expressed in HEK293 cells by cAMP accumulation assay. It is filed as cell-based.
Assay [10] relates to HEK293. As to the kind of experiment: Selectivity ratio of IC50 for PGD2 receptor in human platelets to IC50 for human EP4 receptor expressed in HEK293 cells by cAMP accumulation assay. It is filed as cell-based.

As a reminder, the inhibition in vivo is the relative decrease from the control value, in per cent. Consider `CC(C)Oc1ccc(S(=O)(=O)N2CCN(c3cccc(OCC(=O)O)c3)CC2)cc1`, for which the inhibition in vivo at 10 mg/kg was 78% with Rattus norvegicus [1], 78% in the assay on Rattus norvegicus [2] and 50% in the assay with Rattus norvegicus [3].

Regarding `CC(C)Oc1ccc(S(=O)(=O)N2CCN(c3ccccc3OCC(=O)O)CC2)cc1`, the inhibition in vivo at 10 mg/kg in the assay on Rattus norvegicus [1] was determined as 79%; with Rattus norvegicus [2], 76%; in the assay on Rattus norvegicus [3] it was 59%.

For the compound `CC(C)Oc1ccc(S(=O)(=O)N2CCN(c3ccc(-n4cccn4)c(OCC(=O)O)c3)CC2)cc1`, the Ratio IC50 in the assay on HEK293 [4], with HEK293 [5], in the assay on HEK293 [6], with HEK293 [7], in the assay with HEK293 [8] and with HEK293 [9] was over 20 in each case. Further, the Ratio IC50 in the assay with HEK293 [10] was over 20.

Take `Cc1nnc(-c2ccc(N3CCN(S(=O)(=O)c4ccc(OC(C)C)cc4)CC3)cc2OCC(=O)O)o1`: the Ratio IC50 in the assay with HEK293 [4], with HEK293 [5], with HEK293 [6], with HEK293 [7], with HEK293 [8] and in the assay with HEK293 [9] was over 20 in each case. In the assay on HEK293 [10], the Ratio IC50 is over 20.

For `CC(C)Oc1ccc(S(=O)(=O)N2CCN(c3cc(F)c(F)c(OCC(=O)O)c3)CC2)cn1`, the Ratio IC50 with HEK293 [4], in the assay with HEK293 [5], in the assay with HEK293 [6], in the assay with HEK293 [7], in the assay on HEK293 [8] and in the assay with HEK293 [9] was over 20 each time. Further, the Ratio IC50 in the assay on HEK293 [10] is over 20.

On to `CC(C)Oc1ccc(S(=O)(=O)N2CCN(c3ccc4ncn(CC(=O)O)c4c3)CC2)cc1`, for which the Ratio IC50 in the assay on HEK293 [4], in the assay with HEK293 [5], in the assay with HEK293 [6], with HEK293 [7], in the assay on HEK293 [8] and with HEK293 [9] was over 20 each time. In the assay with HEK293 [10], the Ratio IC50 was over 20.

Take `CC(C)Oc1ccc(S(=O)(=O)N2CCN(c3ccc(C#N)c(OCC(=O)O)c3)CC2)cc1`: the Ratio IC50 in the assay with HEK293 [4], in the assay with HEK293 [5], with HEK293 [6], in the assay on HEK293 [7], in the assay on HEK293 [8] and in the assay with HEK293 [9] was over 20 in each case. In the assay with HEK293 [10], the Ratio IC50 was over 20.

In the case of `CC(C)Oc1ccc(S(=O)(=O)N2CCN(c3cc(OCC(=O)O)cc(-c4ccccc4)c3)CC2)cc1`, the Ratio IC50 in the assay with HEK293 [4], with HEK293 [5], in the assay on HEK293 [6], in the assay with HEK293 [7], with HEK293 [8] and in the assay with HEK293 [9] was over 20 each time. Also, in the assay with HEK293 [10], the Ratio IC50 is over 20.
